Broadly, the bioavailability is dose-corrected exposure relative to a reference, in per cent.

This is an account of results in US8426606B2, “2′,2-bisthiazole non-nucleoside compounds, preparation methods, pharmaceutical compositions and uses as hepatitis virus inhibitors thereof” (Shanghai Institute of Materia Medica, Chinese Academy of …, priority 2010, dated 2013).

A short description of series [1]: Cytotoxicity on HepG2.2.15 cells (MTT assay). It is filed as cell-based, Human. The note with it: human, read-out: CC50 (concentration at which 50% of cells was killed). As to the method: (§1) The anti-HBV activity assay of a specimen compound was performed in HepG2.2.15 cells stably transformed with the whole genome of HBV, including the determination of the cytotoxicity of the specimen compound (CC50) and the effect of the specimen compound on the replication level of HBV-DNA (IC50).
(§2) The Human hepatoma carcinoma cell HepG2.2.15 cell line stably transformed with the whole genome of HBV can stably secrete hepatitis B virosomes (containing DNA) in the supernatant of culture during culture. Both the antiviral activity and the cytotoxicity of the specimen drugs may be determined by detecting the amount of virus DNA secreted into the supernatant of culture by the cells under the intervention of an antiviral drug, in reference to the amount in control group that is the absence of the antiviral drug. A real-time fluorescent quantitation PCR assay was adopted to determine the concentration of a specimen drug at which 50% of the replication of HBV-DNA was inhibited (IC50), and a MTT assay was adopted to determine the concentration of a specimen drug at which 50% cytotoxicity occurs (CC50).
(§3) HepG2.2.15 cells were inoculated on a 96-well plate at 5×10^5 cells/ml. On the second day, the specimen drug was added. After the culture medium and the specimen drug having the same concentration as above were replaced periodically, on the eighth day, the supernatant of culture was collected to be tested. To the cells on the 96-well plate, MTT (5 mg/ml) is added. 4 hours later, MTT lysis solution was added (100 μl/well). The next day, OD570 was read on a microplate reader. The cytotoxicity of the specimen drug on HepG2.2.15 cells, the influence of specimen drug on cell growth, and the concentration of specimen drug at which 50% of cells were killed (CC50) were calculated in accordance with the OD value.
(In general: Formazan colour is commonly taken as a measure of viable cells.)

The next series deals with HCV (J399E). The series can be described thus: microbe, parasite or virus in culture. It is filed as cell-based, Hepatitis C Virus. The settings on record: for IC50: Hepatitis C virus, Huh-7.5.1, 72 h, read-out: IC50 (concentration at which 50% of the replication of HCV was inhibited); for SI (bioactivity selective index): anti-HCV, Huh7.5.1 cells. How it is done:
The variation of the green fluorescence intensity was recorded on a microplate reader and cytotoxicity was measured at the same time, so as to evaluate the influence of the compound on the replication activity of HCV.
Compounds to be tested were dissolved in DMSO to prepare a stock solution before the test. Upon using, the stock solution was diluted to a desired concentration with DMEM (Dulbecco's Modified Eagle Media, purchased from GibcoBRL company (Life Technologies, Grand Island, N.Y., USA)) containing 10% FBS (fetal bovine serum, purchased from Hyclone company (Logan, Utah, USA)).
Positive control: ribavirin (purchased from Sigma/Aldrich). It was dissolved in DMSO to prepare a stock solution and stored at −20° C. before use, and diluted to a desired concentration upon using.
(§4) Huh7.5.1 cells (10% FBS, DMEM) at the concentration of 10^5 cells/ml were inoculated on a 96-well plate (Costar 3904) with 100 μl per well. 24 hours later, the supernatant of culture was sucked out, and 50 μl of virus supernatant with MOI=0.1 was added. 8 hours later, 50 μl of the testing drug was added and 100 μl of culture medium was supplemented. After incubation for 72 hours, the supernatant was sucked out, and read on a fluorescent microplate reader (Ex=488 nm, Em=516 nm). Then each well was added with 20 μl of MTT (5 mg/ml) and additional 50 μl of culture medium. 4 hours later, 100 μl of MTT lysis solution was added. 6 hours later, reading was performed at a wavelength of 570 nm.

The next series in a line: in vitro. Format: cell-based. The settings on record: human. As to the method: The anti-HCV activity assay was performed by using Huh7.5.1 cells (donated by WUHAN INSTITUTE of VIROLOGY, CHINESE ACADEMY OF SCIENCES) infected by HCV (J399E) inserted with enhanced green fluorescent protein (EGFP). The variation of the green fluorescence intensity was recorded on a microplate reader and cytotoxicity was measured at the same time, so as to evaluate the influence of the compound on the replication activity of HCV.
as §4

Series [2] in a line: In vivo pharmacokinetic studies in rats (intragastric and intravenous). More on the design: species or system SD rats. The note with it: rat, plasma, po; male SD rats, 20 mg/kg intragastric, dosage normalized, calculated according to AUC0-t. As to the method: (§5) Intragastric Administration Three healthy male SD rats having body weights of 200 g to 250 g were administered with a specimen drug with a dosage of 20 mg/kg and a volume of 10 ml/kg. The rats were fasted for 12 hours before administration and had the freedom to drink water. The venous blood with a volume of 0.3 ml was obtained from the retrobulbar venous plexus of the rats at 0.25 h, 0.5 h, 1.0 h, 2.0 h, 3.0 h, 4.0 h, 5.0 h, 7.0 h, 9.0 h and 24 h after the administration, put in a heparinized tube, and centrifuged for 10 minutes at 3500 rpm to separate the plasma, which was stored at −20° C. to be tested.
as §5, with “Intravenous Injection: Three healthy” for “Intragastric Administration Three healthy”, “dosage of 10 mg/kg and” for “dosage of 20 mg/kg and”, “volume of 5.0 ml/kg. The” for “volume of 10 ml/kg. The”, “rats at 5 min, 15 min, 0.5 h,” for “rats at 0.25 h, 0.5 h,”, “heparinized tube, centrifuged for” for “heparinized tube, and centrifuged for”

The subject of a further series is HBV. The series can be described thus: Anti-HBV activity assay: HBV-DNA replication in HepG2.2.15 cells, fluorescent quantitation PCR of culture supernatant. It is filed as cell-based, Hepatitis B Virus. The note with it: for IC50: Hepatitis B virus, HBV-DNA in supernatant on the eighth day, read-out: IC50 (concentration at which 50% of the replication of HBV was inhibited); for SI (bioactivity selective index): anti-HBV. As to the method: as §1, §2
The specimen drug was prepared into a solution having a concentration (400 μM) desired for the experiment before use. Six diluted concentrations were tested for each specimen drug. The clinical anti-hepatitis B virus drug Lamivudine was used as the positive control in experiment so as to determine whether the reaction is normal or not in each experiment.
as §3
A proper amount of the supernatant of culture was added into an isovolumic virus extract and mixed uniformly. The resulted mixture was boiled, and then centrifuged for 5 minutes at 10,000 rpm at room temperature. A proper amount of the obtained supernatant was used to perform PCR amplification, and meanwhile four standard samples of HBV-DNA were set up to make a standard curve. The inhibition of each specimen drug at various concentrations against the replication of HBV-DNA was calculated according to the detected replication value of the viral DNA, and then the half inhibition of the specimen drug was calculated to obtain its IC50.

On to `CC(C)=Cc1sc(-c2nccs2)nc1C(=O)NCc1ccc(F)cc1` [Compound 373, N-(p-fluorobenzyl)-5-[1-(2-methylpropenyl)]-2′,2-bisthiazole-4-formamide], for which the CC50 at 6 days in series [1] is greater than 100 µM. Moreover, the IC50 came out at 5.7 µM with HCV (J399E) and 0.9 µM in the series on HBV. Besides, the results for the “SI (bioactivity selective index)” value in the series on HCV (J399E) and with HBV were 14.9 and greater than 111.1, respectively. In the series “in vitro”, the CC50 at 72 h turned out to be 85 µM. The bioavailability in series [2] was 6.9%.

With `C/C(=C\c1sc(-c2nccs2)nc1C(=O)NCc1ccc(F)cc1)CO` [Compound 389, N-(p-fluorobenzyl)-5-[1-(3-hydroxy-2-methylpropenyl)]-2′,2-bisthiazole-4-formamide], the CC50 at 6 days in series [1] was greater than 100 µM. Besides, in the series on HCV (J399E), the IC50 worked out at 6.6 µM and the “SI (bioactivity selective index)” value was 11.6. In “in vitro”, this molecule had a CC50 at 72 h of 76.5 µM. In the series with HBV, the IC50 worked out at 30.2 µM and the “SI (bioactivity selective index)” value is greater than 3.3.

With `CC(C)C(O)c1sc(-c2nccs2)nc1C(=O)NCc1ccc(F)cc1` (stereo not shown) [Compound 391-1, N-(p-fluorobenzyl)-5-(1-hydroxy-2-methylpropyl)-2′,2-bisthiazole-4-formamide], the CC50 at 6 days in series [1] was 34 µM. For the same molecule, in the series with HCV (J399E), the IC50 is 10.2 µM and the “SI (bioactivity selective index)” value is on record as 4.8. This molecule registered a CC50 at 72 h in the series “in vitro” of 48.6 µM. Moreover, in the series on HBV, the IC50 worked out at 1.63 µM and the “SI (bioactivity selective index)” value was 20.9.

Regarding `CC(CO)Cc1sc(-c2nccs2)nc1C(=O)NCc1ccc(F)cc1` (stereo not shown) [Compound 391-3, N-(p-fluorobenzyl)-5-(3-hydroxy-2-methylpropyl)-2′,2-bisthiazole-4-formamide], the CC50 at 6 days in series [1] is greater than 100 µM. In the series on HCV (J399E), the IC50 came out at 9.9 µM and the “SI (bioactivity selective index)” value is 2.8. Also, in the series “in vitro”, the CC50 at 72 h is 28.1 µM. For the same molecule, in the series with HBV, the IC50 is less than 0.41 µM and the “SI (bioactivity selective index)” value was greater than 243.9.

As for `C/C(=C\c1sc(-c2nccs2)nc1C(=O)NCc1ccc(F)cc1)CF` [Compound 391-F, N-(p-fluorobenzyl)-5-[1-(2-fluoromethylpropenyl)]-2′,2-bisthiazole-4-formamide], the CC50 at 6 days in series [1] is greater than 100 µM. Further, in the series on HCV (J399E), the IC50 was 6.5 µM and the “SI (bioactivity selective index)” value is 13.0. For the same molecule, the CC50 at 72 h in “in vitro” worked out at 84.7 µM. In the series on HBV, the IC50 turned out to be 12.5 µM and the “SI (bioactivity selective index)” value is given as greater than 8.

In the case of `CC(C)C(F)c1sc(-c2nccs2)nc1C(=O)NCc1ccc(F)cc1` (stereo not shown) [Compound 393-1, N-(p-fluorobenzyl)-5-(1-fluoro-2-methylpropyl)-2′,2-bisthiazole-4-formamide], the CC50 at 6 days in series [1] is greater than 33.3 µM. Besides, in the series on HCV (J399E), the IC50 was 7.4 µM and the “SI (bioactivity selective index)” value is 5.5. For the same molecule, in the series “in vitro”, the CC50 at 72 h was 40.9 µM. In the series on HBV, the IC50 is less than 0.41 µM and the “SI (bioactivity selective index)” value is on record as greater than 81.

Turning to `CC(C)(F)Cc1sc(-c2nccs2)nc1C(=O)NCc1ccc(F)cc1` [Compound 393-2, N-(p-fluorobenzyl)-5-(2-fluoro-2-methylpropyl)-2′,2-bisthiazole-4-formamide], in series [1], the CC50 at 6 days was greater than 33.3 µM. Moreover, in the series with HCV (J399E), the IC50 worked out at 1.5 µM and the “SI (bioactivity selective index)” value was greater than 22.2. Besides, the CC50 at 72 h in “in vitro” is greater than 33.3 µM. For the same molecule, in the series with HBV, the IC50 lay in the range of 0.41 to 33.3 µM and the “SI (bioactivity selective index)” value is given as less than 81.

On to `COC(c1sc(-c2nccs2)nc1C(=O)NCc1ccc(F)cc1)C(C)C` (stereo not shown) [Compound 405-1, N-(p-fluorobenzyl)-5-(1-methoxy-2-methylpropyl)-2′,2-bisthiazole-4-formamide], for which the CC50 at 6 days in series [1] was greater than 33.3 µM. Also, in the series on HCV (J399E), the IC50 turned out to be 3.7 µM and the “SI (bioactivity selective index)” value was 5.8. For the same molecule, the CC50 at 72 h in “in vitro” is 21.4 µM. In the series with HBV, the IC50 was 2.6 µM and the “SI (bioactivity selective index)” value is greater than 12.8.

Turning to `Nc1ccn([C@@H]2CS[C@H](CO)O2)c(=O)n1` [Lamivudine, reference compound], the CC50 at 6 days in series [1] was greater than 5 µM. Also, in the series on HBV, the IC50 is less than 0.16 µM and the “SI (bioactivity selective index)” value is reported as greater than 32.

For `CC(C)=Cc1sc(-c2ncc(C)s2)nc1C(=O)NCc1ccc(F)cc1` [Me-373, N-(p-fluorobenzyl)-5′-methyl-5-[1-(2-methylpropenyl)]-2′,2-bisthiazole-4-formamide], in series [1], the CC50 at 6 days is greater than 100 µM. For the same molecule, the IC50 was 17.4 µM in the series with HCV (J399E) and 1.1 µM with HBV. Moreover, the “SI (bioactivity selective index)” value with HCV (J399E) is 3.8; in the series with HBV, greater than 90.9. This molecule also gave a CC50 at 72 h in “in vitro” of 66.6 µM.

Turning to `Cc1cnc(-c2nc(C(=O)NCc3ccc(F)cc3)c(C(O)C(C)C)s2)s1` (stereo not shown) [Me-391-1, N-(p-fluorobenzyl)-5′-methyl-5-(1-hydroxy-2-methylpropyl)-2′,2-bisthiazole-4-formamide], the CC50 at 6 days in series [1] is greater than 33.3 µM. The results for the IC50 in the series with HCV (J399E) and in the series on HBV were 3.7 µM and 2.9 µM, respectively. Besides, the “SI (bioactivity selective index)” value in the series on HCV (J399E) is reported as greater than 9; in the series with HBV, greater than 11.5. Further, the CC50 at 72 h in the series “in vitro” was greater than 33.3 µM.

Regarding `Cc1cnc(-c2nc(C(=O)NCc3ccc(F)cc3)c(C(F)C(C)C)s2)s1` (stereo not shown) [Me-393-1, N-(p-fluorobenzyl)-5′-methyl-5-(1-fluoro-2-methylpropyl)-2′,2-bisthiazole-4-formamide], the CC50 at 6 days in series [1] is greater than 100 µM. The IC50 was 6.6 µM in the series with HCV (J399E) and 0.2 µM in the series with HBV. In addition, the “SI (bioactivity selective index)” value in the series with HCV (J399E) is greater than 15.2; in the series on HBV, greater than 500. The same molecule gave a CC50 at 72 h in the series “in vitro” greater than 100 µM.

For the molecule `NC(=O)c1ncn([C@@H]2O[C@H](CO)[C@@H](O)[C@H]2O)n1` [Ribavirin, ribavirin, reference compound], in the series on HCV (J399E), the IC50 amounted to 72.4 µM and the “SI (bioactivity selective index)” value is reported as greater than 2.8. In the series “in vitro”, the CC50 at 72 h is greater than 200 µM.
